Data from patent publication US11673898B2, “Substituted inhibitors of menin-MLL and methods of use” (Kura Oncology, Inc., priority 2016, dated 2023).
pIC50: −log10 of the molar value.

Biological target: T1, Menin MLL 4-43 (Homo sapiens, UniProt O00255)
T1 sequence (O00255 1-610): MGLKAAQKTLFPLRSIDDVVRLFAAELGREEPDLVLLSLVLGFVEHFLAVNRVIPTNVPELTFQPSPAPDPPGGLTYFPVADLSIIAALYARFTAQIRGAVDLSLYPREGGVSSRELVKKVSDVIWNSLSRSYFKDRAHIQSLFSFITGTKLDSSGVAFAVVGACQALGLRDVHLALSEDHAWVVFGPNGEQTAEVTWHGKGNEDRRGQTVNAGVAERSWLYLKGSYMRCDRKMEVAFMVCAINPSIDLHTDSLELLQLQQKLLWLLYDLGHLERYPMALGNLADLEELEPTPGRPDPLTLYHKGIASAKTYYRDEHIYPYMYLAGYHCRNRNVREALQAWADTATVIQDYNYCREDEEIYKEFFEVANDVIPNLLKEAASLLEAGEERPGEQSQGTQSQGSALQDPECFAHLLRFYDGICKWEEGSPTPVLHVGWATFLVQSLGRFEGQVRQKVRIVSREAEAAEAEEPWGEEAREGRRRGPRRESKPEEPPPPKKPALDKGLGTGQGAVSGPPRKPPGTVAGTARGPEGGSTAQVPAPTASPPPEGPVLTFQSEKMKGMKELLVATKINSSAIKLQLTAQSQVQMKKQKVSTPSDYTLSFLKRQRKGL
Experiment: Fluorescence polarization (FP) competition assay of the menin-MLL interaction
Format: binding
Conditions: fluorescence polarization assay; read-out: Menin MLL 4-43 IC50

pIC50 | SMILES
6.00 to 7.70 | Cc1c(CN2CCC(Nc3ncnc4sc(CC(F)(F)F)cc34)CC2)ccc2c1cc(C#N)n2C[C@H](C)N1CCN(C(=O)C(F)(F)F)CC1 [Compound 118]
6.00 to 7.70 | Cc1c(CN2CCC(Nc3nc(C4CC4)nc4sc(CC(F)(F)F)cc34)CC2)ccc2c1cc(C#N)n2C[C@H](C)N1CCN(S(C)(=O)=O)CC1 [Compound 173]
6.60 to 7.30 | Cc1c(CN2CCC(Nc3ncnc4sc(CC(F)(F)F)cc34)CC2)ccc2c1cc(C#N)n2C[C@H](C)N1CCN(S(=O)(=O)CF)CC1 [Compound 70]
> 7.30 | Cc1nc(NC2CCN(Cc3ccc4c(cc(C#N)n4C[C@H](C)N4CCN(C=O)CC4)c3C)CC2)c2cc(CC(F)(F)F)sc2n1 [Compound 136]
6.60 to 7.30 | Cc1c(CN2CCC(Nc3ncnc4sc(CC(F)(F)F)cc34)CC2)ccc2c1cc(C#N)n2CC(C)N1C2CCC1CN(S(C)(=O)=O)C2 (centres unmarked) [Compound 94]
6.60 to 7.30 | CNc1nc(NC2CCN(Cc3ccc4c(cc(C#N)n4C[C@H](C)N4CCN(S(=O)(=O)C5CC5)CC4)c3C)CC2)c2cc(CC(F)(F)F)sc2n1 [Compound 211]
> 7.30 | CNc1nc(NC2CCN(Cc3ccc4c(cc(C#N)n4C[C@H](C)N4CCOC(C(=O)N(C)C)C4)c3C)CC2)c2cc(CC(F)(F)F)sc2n1 (some centres unmarked) [Compound 215]
6.60 to 7.30 | Cc1c(CN2CCC(Nc3ncnc4sc(CC(F)(F)F)cc34)CC2)ccc2c1cc(C#N)n2C[C@@H](C)N1CCN(S(C)(=O)=O)[C@@H](C)C1 [Compound 17]
> 7.30 | Cc1c(CN2CCC(Nc3ncnc4sc(CC(F)(F)F)cc34)CC2)ccc2c1cc(C#N)n2C[C@H](C)N1CCN(S(=O)(=O)C2CC2)CC1 [Compound 115]
6.60 to 7.30 | Cc1c(CN2CCC(Nc3ncnc4sc(CC(F)(F)F)cc34)CC2)ccc2c1cc(C#N)n2CCN1C[C@H](C)N(S(C)(=O)=O)[C@@H](C)C1 [Compound 49]
> 7.30 | Cc1c(CN2CCC(Nc3ncnc4sc(CC(F)(F)F)cc34)CC2)ccc2c1cc(C#N)n2CC(C)N1CCN(S(=O)(=O)NCCN)CC1 (centres unmarked) [Compound 88]
> 7.30 | CNS(=O)(=O)N1CCN([C@@H](C)Cn2c(C#N)cc3c(C)c(CN4CCC(Nc5ncnc6sc(CC(F)(F)F)cc56)CC4)ccc32)CC1 [Compound 64]
> 7.30 | CCS(=O)(=O)N1CCN([C@@H](C)Cn2c(C#N)cc3c(C)c(CN4CCC(Nc5nc(NC)nc6sc(CC(F)(F)F)cc56)CC4)ccc32)CC1 [Compound 210]
6.60 to 7.30 | Cc1c(CN2CCC(Nc3ncnc4sc(CC(F)(F)F)cc34)CC2)ccc2c1cc(C#N)n2C[C@H](C)N1CCN(S(=O)(=O)CC(F)(F)F)CC1 [Compound 126]
6.60 to 7.30 | Cc1c(CN2CCC(Nc3nc(N)nc4sc(CC(F)(F)F)cc34)CC2)ccc2c1cc(C#N)n2C[C@H](C)N1CCN(C2CC2)CC1 [Compound 190]
6.60 to 7.30 | Cc1c(CN2CCC(Nc3ncnc4sc(CC(F)(F)F)cc34)CC2)ccc2c1cc(C#N)n2CCN1C[C@@H](C)N(S(C)(=O)=O)[C@H](C)C1 [Compound 48]
< 6.00 | CCOC(=O)c1c(CC(F)(F)F)sc2ncnc(NC3CCN(Cc4ccc5c(cc(C#N)n5C[C@H](C)N5CCN(S(C)(=O)=O)CC5)c4C)CC3)c12 [Compound 200]
6.60 to 7.30 | Cc1c(CN2CCC(Nc3ncnc4sc(CC(F)(F)F)cc34)CC2)ccc2c1cc(C#N)n2C[C@H](C)N1CCN(S(=O)(=O)CF)[C@H](C)C1 [Compound 145]
6.00 to 7.70 | Cc1c(CN2CCC(Nc3ncnc4sc(CC(F)(F)F)cc34)CC2)ccc2c1cc(C#N)n2CCN1CCN(S(C)(=O)=O)CC1C (centres unmarked) [Compound 45]
> 7.30 | CCNS(=O)(=O)N1CCN([C@@H](C)Cn2c(C#N)cc3c(C)c(CN4CCC(Nc5ncnc6sc(CC(F)(F)F)cc56)CC4)ccc32)CC1 [Compound 119]
6.60 to 7.30 | Cc1c(CN2CCC(Nc3ncnc4sc(CC(F)(F)F)cc34)CC2)ccc2c1cc(C#N)n2C[C@H](C)N1CCN(S(=O)(=O)CCF)CC1 [Compound 69]
6.60 to 7.30 | CC[C@@H]1CN(C(C)Cn2c(C#N)cc3c(C)c(CN4CCC(Nc5ncnc6sc(CC(F)(F)F)cc56)CC4)ccc32)CCN1S(C)(=O)=O (some centres unmarked) [Compound 29]
6.60 to 7.30 | CC(=O)OCc1nc(NC2CCN(Cc3ccc4c(cc(C#N)n4C[C@H](C)N4CCN(S(C)(=O)=O)CC4)c3C)CC2)c2cc(CC(F)(F)F)sc2n1 [Compound 245]
6.60 to 7.30 | Cc1c(CN2CCC(Nc3ncnc4sc(CC(F)(F)F)cc34)CC2)ccc2c1cc(C#N)n2CCN1CCN(S(C)(=O)=O)C(C)C1 (centres unmarked) [Compound 43]
> 7.30 | CNc1nc(NC2CCN(Cc3ccc4c(cc(C#N)n4C[C@H](C)N4C5CCC4CN(S(C)(=O)=O)C5)c3C)CC2)c2cc(CC(F)(F)F)sc2n1 [Compound 282]

pIC50 | SMILES
6.60 to 7.30 | CNc1nc(NC2CCN(Cc3ccc4c(cc(C#N)n4C[C@H](C)N4CCC(F)(F)CC4)c3C)CC2)c2cc(CC(F)(F)F)sc2n1 [Compound 195]
> 7.30 | CNc1nc(NC2CCN(Cc3ccc4c(cc(C#N)n4CCN4CCC(S(C)(=O)=O)CC4)c3C)CC2)c2cc(CC(F)(F)F)sc2n1 [Compound 1020]
6.60 to 7.30 | [2H]C([2H])(C(C)N1CCN(S(C)(=O)=O)CC1)n1c(C#N)cc2c(C)c(CN3CCC(Nc4ncnc5sc(CC(F)(F)F)cc45)CC3)ccc21 (centres unmarked) [Compound 74]
6.60 to 7.30 | CNc1nc(NC2CCN(Cc3ccc4c(cc(C#N)n4C[C@H](C)N4CCC(S(=O)(=O)NC)CC4)c3C)CC2)c2cc(CC(F)(F)F)sc2n1 [Compound 185]
6.60 to 7.30 | Cc1c(CN2CCC(Nc3ncnc4sc(CC(F)(F)F)cc34)CC2)ccc2c1cc(C#N)n2CC(C)N1C[C@@H](C)N(S(=O)(=O)CF)[C@H](C)C1 (some centres unmarked) [Compound 124]
6.60 to 7.30 | Cc1c(CN2CCC(Nc3ncnc4sc(CC(F)(F)F)cc34)CC2)ccc2c1cc(C#N)n2C[C@H](C)N1CCN(S(=O)(=O)NCC(C)C)CC1 [Compound 120]
6.00 to 7.70 | Cc1c(CN2CCC(Nc3ncnc4sc(CC(F)(F)F)cc34)CC2)ccc2c1cc(C#N)n2CCN1CC2(CCN(S(C)(=O)=O)CC2)C1 [Compound 56]
> 7.30 | Cc1c(CN2CCC(Nc3ncnc4sc(CC(F)(F)F)cc34)CC2)ccc2c1cc(C#N)n2CC(C)N1CC2CCC(C1)N2S(C)(=O)=O (centres unmarked) [Compound 28]
6.60 to 7.30 | CC(=O)N1CCN(C(C)Cn2c(C#N)cc3c(C)c(CN4CCC(Nc5ncnc6sc(CC(F)(F)F)cc56)CC4)ccc32)CC1 (centres unmarked) [Compound 5]
> 7.30 | Cc1nc(NC2CCN(Cc3ccc4c(cc(C#N)n4C[C@H](C)N4CCN(CC(N)=O)CC4)c3C)CC2)c2cc(CC(F)(F)F)sc2n1 [Compound 178]
6.60 to 7.30 | Cc1nc(NC2CCN(Cc3ccc4c(cc(C#N)n4C[C@H](C)N4CCN(S(=O)(=O)CF)CC4)c3C)CC2)c2cc(CC(F)(F)F)sc2n1 [Compound 137]
> 7.30 | Cc1c(CN2CCC(Nc3nc(F)nc4sc(CC(F)(F)F)cc34)CC2)ccc2c1cc(C#N)n2C[C@H](C)N1CCN(S(C)(=O)=O)CC1 [Compound 222]
6.00 to 7.70 | Cc1c(CN2CCC(Nc3ncnc4sc(CC(F)(F)F)cc34)CC2)ccc2c1cc(C#N)n2CCN1CC2CN(S(C)(=O)=O)CC2C1 (centres unmarked) [Compound 55]
> 7.30 | Cc1nc(NC2CCN(Cc3ccc4c(cc(C#N)n4C[C@H](C)N4C5CCC4CN(S(C)(=O)=O)C5)c3C)CC2)c2cc(CC(F)(F)F)sc2n1 [Compound 283]
> 7.30 | CNc1nc(NC2CCN(Cc3ccc4c(cc(C#N)n4C[C@H](C)N4CCN(S(C)(=O)=O)[C@H](C#N)C4)c3C)CC2)c2cc(CC(F)(F)F)sc2n1 [Compound 209]
> 7.30 | Cc1c(CN2CCC(Nc3nc(N)nc4sc(CC(F)(F)F)cc34)CC2)ccc2c1cc(C#N)n2C[C@H](C)N1CCC(S(C)(=O)=O)CC1 [Compound 158]
> 7.30 | Cc1c(CN2CCC(Nc3nc(N)nc4sc(CC(F)(F)F)cc34)CC2)ccc2c1cc(C#N)n2C[C@H](C)N1CCN(S(=O)(=O)C2CC2)CC1 [Compound 147]
6.60 to 7.30 | C[C@@H](Cn1c(C#N)cc2cc(CN3CCC(Nc4ncnc5sc(CC(F)(F)F)cc45)CC3)c(O)cc21)N1CCN(C=O)CC1 [Compound 159]
6.60 to 7.30 | CNC(=O)C1CCN(C(C)Cn2c(C#N)cc3c(C)c(CN4CCC(Nc5ncnc6sc(CC(F)(F)F)cc56)CC4)ccc32)CC1 (centres unmarked) [Compound 84]
6.60 to 7.30 | COCC(=O)N1CCN([C@@H](C)Cn2c(C#N)cc3c(C)c(CN4CCC(Nc5ncnc6sc(CC(F)(F)F)cc56)CC4)ccc32)CC1 [Compound 133]
> 7.30 | CNC(=O)[C@@H]1CN([C@@H](C)Cn2c(C#N)cc3c(C)c(CN4CCC(Nc5nc(NC)nc6sc(CC(F)(F)F)cc56)CC4)ccc32)CCN1S(C)(=O)=O [Compound 197]
6.00 to 7.70 | C#CCOc1cc(CCn2c(C#N)cc3c(C)c(CN4CCC(Nc5ncnc6sc(CC(F)(F)F)cc56)CC4)ccc32)ccc1NC(=O)C=C [Compound 1011]
> 7.30 | Cc1c(CN2CCC(Nc3ncnc4sc(CC(F)(F)F)cc34)CC2)ccc2c1cc(C#N)n2C[C@H](C)N1CCN(S(=O)(=O)NCCO)CC1 [Compound 131]
< 6.00 | Cc1c(CN2CCC(Nc3ncnc4sc(CC(F)(F)F)cc34)CC2)ccc2c1cc(C#N)n2CC(=O)N1CCN(S(C)(=O)=O)CC1 [Compound 35, 4-methyl-1-(2-(4-(methylsulfonyl)piperazin-1-yl)-2-oxoethyl)-5-((4-((6-(2,2,2-trifluoroethyl)thieno[2,3-d]pyrimidin-4-yl)amino)piperidin-1-yl)methyl)-1H-indole-2-carbonitrile]
> 7.30 | CNc1nc(NC2CCN(Cc3ccc4c(cc(C#N)n4C[C@H](C)N4CCN(S(=O)(=O)CC5CC5)CC4)c3C)CC2)c2cc(CC(F)(F)F)sc2n1 [Compound 250]
